Measurements published in patent US20090111804A1, “ARYLINDENOPYRIMIDINES AND THEIR USE AS ADENOSINE A2a” (priority 2007, published 2009).

Legend:
[1] = target: T1, A1 (Homo sapiens, UniProt P30542); experiment: A1 cell-based functional assay
T1 sequence (P30542 1-326): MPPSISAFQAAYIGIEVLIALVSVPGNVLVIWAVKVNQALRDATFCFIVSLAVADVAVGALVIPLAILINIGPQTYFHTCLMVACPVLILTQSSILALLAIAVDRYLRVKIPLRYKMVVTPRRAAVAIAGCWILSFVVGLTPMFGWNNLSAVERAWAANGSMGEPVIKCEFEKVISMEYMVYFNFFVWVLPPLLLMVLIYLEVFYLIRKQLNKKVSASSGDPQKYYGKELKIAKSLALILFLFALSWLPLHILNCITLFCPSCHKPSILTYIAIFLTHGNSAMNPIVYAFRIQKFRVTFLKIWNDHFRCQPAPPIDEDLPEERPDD

[2] = target: T2, human adenosine A2a receptors (Homo sapiens, UniProt P29274); experiment: Adenosine A2a receptor cell-based functional assay (cAMP-inducible beta-galactosidase reporter); conditions: CHO-K1 cells overexpressing human adenosine A2a receptors; antagonist assay with 50 nM NECA
T2 construct: expressed in transfected cells; host or cells: CHO-K1
T2 sequence (P29274 whole entry): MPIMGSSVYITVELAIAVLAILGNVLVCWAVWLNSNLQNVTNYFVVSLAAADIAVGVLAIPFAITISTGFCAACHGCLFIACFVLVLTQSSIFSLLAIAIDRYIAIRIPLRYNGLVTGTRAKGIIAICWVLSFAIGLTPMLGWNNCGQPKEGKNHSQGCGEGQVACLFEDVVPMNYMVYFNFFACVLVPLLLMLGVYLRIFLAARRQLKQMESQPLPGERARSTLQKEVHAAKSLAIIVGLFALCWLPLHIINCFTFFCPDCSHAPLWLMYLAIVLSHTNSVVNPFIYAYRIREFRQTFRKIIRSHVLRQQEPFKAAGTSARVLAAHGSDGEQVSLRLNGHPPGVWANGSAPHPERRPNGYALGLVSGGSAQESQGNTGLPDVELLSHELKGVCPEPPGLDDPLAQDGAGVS
Description: Nonspecific binding was determined by […] NECA. […] Data was analyzed in Microsoft Excel and GraphPad Prism programs. […] For agonist assay, adenosine A2a receptor agonist NECA was subsequently added and cell incubated at 37° C., 5% CO2 for 5 hrs before stopping reaction. In the case of antagonist assay, cells were incubated with antagonists for 5 minutes at R.T. followed by addition of 50 nM NECA. Cells were then incubated at 37° C., 5% CO2 for 5 hrs before stopping experiments by washing cells with PBS twice. […] Color was allowed to develop at 37° C. for 1 h or until reasonable signal appeared. […] Data was analyzed in Microsoft Excel and GraphPad Prism programs.

With `Nc1nc(-c2ccccc2)c2c(n1)-c1cc(OCCN3CCOCC3)ccc1C2=O` [A, 2-Amino-8-(2-morpholin-4-yl-ethoxy)-4-phenyl-indeno[1,2-d]pyrimidin-5-one] the Ki [1] was 49.6 nM.

Work on `CC1CCC(C)N1Cc1ccc2c(c1)-c1nc(N)nc(-c3ccccc3)c1C2=O` (centres unmarked) [B, 2-Amino-8-(2,5-dimethyl-pyrrolidin-1-ylmethyl)-4-phenyl-indeno[1,2-d]pyrimidin-5-one] yielded a Ki [2] of 13.1 nM and a Ki [1] of 37.3 nM.

`Nc1nc(-c2ccccc2)c2c(n1)-c1cc(Cc3cccnc3)ccc1C2=O` [C, 2-Amino-4-phenyl-8-pyridin-3-ylmethyl-indeno[1,2-d]pyrimidin-5-one] was tested, and the Ki [2] was 0.4 nM and the Ki [1] was 4.4 nM.
